Data on 4 compounds can be found in patent US5389660A, “Substituted imidazo-fused 5-membered ring heterocycles as angiotensin II antagonists” (Merck & Co., Inc., priority 1992, dated 1995).

Structures are written as SMILES.

As a reminder, the IC50 is the concentration that gives 50% inhibition.

The subject of the test is A II receptor. Put plainly: Angiotensin II ligand-receptor binding assay (rabbit aortae membrane preparation / bovine adrenal cortex preparation). Particulars: "at least IC50 <50 μM"; not stated which of the two binding assays (rabbit aortae, 125I-Sar1Ile8-A II; bovine adrenal cortex, 3H-A II); read-out: IC50 (50% displacement of specifically bound radiolabelled angiotensin II ligand). The source says: Angiotensin II (A II) is a powerful arterial vasoconstrictor, and it exerts its action by interacting with specific receptors present on cell membranes. The compounds described in the present invention act as competitive antagonists of A II at the receptors. In order to identify A II antagonists and determine their efficacy in vitro, the following two ligand-receptor binding assays were established.
Receptor binding assay using rabbit aortae membrane preparation
Three frozen rabbit aortae (obtained from Pel-Freeze Biologicals) were suspended in 5 mM Tris-0.25M Sucrose, pH 7.4 buffer (50 ml) homogenized, and then centifuged. The mixture was filtered through a cheesecloth and the supernatant was centrifuged for 30 minutes at 20,000 rpm at 4° C. The pellet thus obtained was resuspended in 30 ml of 50 mM Tris-5 mM MgCl2 buffer containing 0.2% Bovine Serum Albumin and 0.2 mg/ml Bacitration and the suspension was used for 100 assay tubes. Samples tested for screening were done in duplicate. To the membrane preparation (0.25 ml) there was added ^125 I-Sar^1 Ile^8 -angiotensin II [obtained from New England Nuclear] (10 ul; 20,000 cpm) with or without the test sample and the mixture was incubated at 37° C. for 90 minutes. The mixture was then diluted with ice-cold 50 mM Tris-0.9% NaCl, pH 7.4 (4 ml) and filtered through a glass fiber filter (GF/B Whatman 2.4" diameter). The filter was soaked in scintillation cocktail (10 ml) and counted for radioactivity using Packard 2660 Tricarb liquid scintillation counter. The inhibitory concentration (IC50) of potential A II antagonist which gives 50% displacement of the total specifically bound ^125 I-Sar^1 Ile^8 -angiotensin II was presented as a measure of the efficacy of such compounds as A II antagonists.
Receptor assay using Bovine adrenal cortex preparation
Bovine adrenal cortex was selected as the source of A II receptor. Weighed tissue (0.1 g is needed for 100 assay tubes) was suspended in Tris.HCl (50 mM), pH 7.7 buffer and homogenized. The homogenate was centrifuged at 20,000 rpm for 15 minutes. Supernatant was discarded and pellets resuspended in buffer [Na2 HPO4 (10 mM)-NaCl (120 mM)-disodium EDTA (5 mM) containing phenylmethane sulfonyl fluoride (PMSF)(0.1 mM)]. (For screening of compounds, generally duplicates of tubes are used). To the membrane preparation (0.5 ml) there was added 3H-angiotensin II ([…]) (10 ul) with or without the test sample and the mixture was incubated at 37° C. for 1 hour. The mixture was then diluted with Tris buffer (4 ml) and filtered through a glass fiber filter (GF/B Whatman 2.4" diameter). The filter was soaked in scintillation cocktail (10 ml) and counted for radioactivity using Packard 2660 Tricarb liquid scintillation counter. […]
As to `CCCCc1nc2sc(C(=O)OC)cc2n1Cc1ccc(-c2ccccc2-c2nnn[nH]2)cc1` [Example 6, 2-butyl-1-[(2'-{1H-tetrazol-5-yl}{1,1'-biphenyl}-4-yl)methyl]-1H-thieno[2,3-d]imidazole-5-carboxylic acid methyl ester], the half-inhibitory concentration (IC50) was less than 50 µM. As to `CCCCc1nc2cscc2n1Cc1ccc(-c2ccccc2C(=O)O)cc1` [Example 1, 4'-[(2-butyl-1H-thieno[3,4-d]imidazol-1-yl)methyl][1,1'-biphenyl]-2-carboxylic acid], the 50% inhibitory concentration (IC50) is less than 50 µM. `CCCc1nc2c(c(C)nn2C)n1Cc1ccc(-c2ccccc2-c2nnn[nH]2)cc1` [Example 11, 1,4-Dihydro-1,3-dimethyl-5-propyl-4-[(2'-{1H-tetrazol-5-yl}{1,1'-biphenyl}-4-yl)methyl]imidazo[4,5-c]-pyrazole]: the half-maximal inhibitory concentration (IC50) is less than 50 µM. As for `CCCCc1nc2cc(C(=O)OC)sc2n1Cc1ccc(-c2ccccc2C(=O)O)cc1` [Example 3, 2-butyl-3-[(2'-carboxy{1,1'-biphenyl}-4-yl)methyl]-3H-thieno[2,3-d]imidazole-5-carboxylic acid methyl ester], the IC50 was less than 50 µM.
